Laboratory results as given in patent US6147107A, “Specific inhibition of the P42/44 mitogen activated protein (map) kinase cascade sensitizes tumor cells” (priority 1998, dated 2000).

Experiments:
[1] = system: MDA-MB-231 mammary cancer cells
Procedure: To further extend these investigations, the efficacy of U0126 was tested in the mammary cancer cell line MDA-MB-23 1. As described in the previous experiment, cells were exposed to 2 μM U0126 alone, radiation (3×2 Gy) alone, or to the combination of U0126 plus radiation. Control cells were treated with vehicle alone.

[2] = system: A431 cells
[3] = system: cancer cells; test: Radiosensitization of cancer cells; assay type: cell-based; conditions: general statement
[4] = system: A431 cells; test: TUNEL assay, apoptosis of A431 cells after radiation; assay type: cell-based, human; conditions: 2 μM inhibitor + 2 Gy, 24 hours
Procedure: The ability of the cells to survive was assessed using TUNEL assays 24 hours after irradiation and the results are depicted in FIG. 4.

[5] = system: MEK1 and MEK2; test: Inhibition of Raf-mediated phosphorylation/activation of MEK1/2; assay type: biochemical; conditions: for inhibition of MEK1 and MEK2: general statement; for inhibition of Raf phosphorylation of MEK1 and MEK2: stated as demonstrated by the applicant
[6] = system: MEK1 and MEK2; conditions: general statement on known inhibitors; cited from earlier work
[7] = system: HL-60 cells; test: Clonogenicity of HL-60 cells; assay type: cell-based, human; conditions: either agent alone
Procedure: FIGS. 9a and 9b. […] HL-60 cells were exposed to ara-C (10 μM) in the absence or presence of aminomethoxyflavone (PD98059; 2.5 μM) for 6 hours. Apoptotic DNA damage and cell death were assessed as described in Methods. […] FIG. 9b.
Determination of Clonogenicity: Pelleted cells were rinsed extensively and prepared for soft-agar cloning. Cells were resuspended in cold PBS and seeded in 35-mm culture plates at a fixed density (400 cell/ml/well) in complete RPMI-1640 medium containing 20% fetal calf serum, 10% 5637-CM, and 0.3% Bacto agar. Cultures were mainatined for 10 to 12 days before formation of colonies (defined as groups of ≥50 cells) was scored.

[8] = system: p42/44 MAP kinase; test: MAP kinase activity in HL-60 cells (immunoprecipitation, MBP substrate); assay type: cell-based, human; conditions: ara-C
Procedure: FIG. 8. […] HL-60 cells were exposed to ara-C (10 μM) in the absence or presence of aminomethoxyflavone (PD98059; 2.5 μM) for 3 hours. MAP kinase activity (p42-ERK1/p44-ERK2) was determined by in vitro assay. In each case, values reflect the mean ±SE of duplicate determinations, and are expressed as a percentage of basal activity present in untreated controls.
Determination of MAPK Activity: Pelleted cells were rinsed in PBS, repelleted, and flash-frozen. Cell pellets were lysed in 25 mM Hepes, pH 7.4 containing 5 mM EGTA, 5 mM EDTA, supplemented with protease inhibitors (5 mM benzamidine, 1 mM phenylmethylsulfonylfluoride, 1 mg/ml soybean trypsin inhibitor, 40 μg/ml aprotinin, 1 μM microcystin LR) phosphatase inhibitors (0.5 mM trisodium orthovanadate, 0.5 mM tetrasodium pyrophosphate), and containing 0.056% sodium deoxycholate w/v, 1% Triton X-100 v/v, and 0.1% 2-mercaptoethanol v/v. Lysates were clarified by centrifugation at 5,000× g at 4° C. for 5 min. MAPK activity was assayed using MBP as a substrate following immunoprecipitation of p42/44 MAP kinase with protein A/agarose-conjugated antibody/antisera. Preimmune controls were also run to ensure selectivity of substrate phosphorylation. Reaction mixtures consisted of immunoprecipitated enzyme, substrate, and [γ-^32 P] ATP ([…]) in 25 mM Hepes, pH 7.4 containing 15 mM MgCl2, […], 0.01% (v/v) 2-mercaptoethanol, 1 μM […]. Reactions were initiated by the addition of substrate. MAPK reactions were terminated by transfer to p81 filter paper; filters were rinsed repeatedly in 185 mM orhtophosphoric acid, and then dehydrated in acetone. Total radioactivity in filters was determined by liquid scintillometry.
HL-60 cells were exposed to ara-C in the absence or presence of PD98059. Following this treatment, the cells were eveluated for MAP kinase activity, DNA strand breakage, clonogenicity potential and extent of apoptosis.

[9] = system: HL-60 cells; test: Taxol-mediated apoptosis of HL-60 cells; conditions: Homo sapiens, HL-60, 6 h, read-out: cell death, taxol alone
[10] = system: primary hepatocytes; test: TUNEL assay, primary hepatocytes after radiation; assay type: cell-based; conditions: SL327 (2 μM) + 2×2 Gy, 12 hours
Procedure: (§1) Experimental cells were exposed to radiation (2×2 Gy), or treated with the p42/44 MAP kinase inhibitory drug SL327 (2 μM), or treated with SL327 and exposed to radiation. Twelve hours after the final irradiation, cells were assessed by the TUNEL assay.
(§2) This is highly relevant because the neoplastic cells which are targeted for destruction by radiation therapy are rapidly proliferating, in contrast to most normal slowly growing somatic cells. Primary hepatocytes (representing slow growing "normal" cells) and HepG2 hepatoma cells derived from a cancerous cell line were cultured under identical conditions. Control cells of both types were left untreated. Matched samples of both cell types were treated with the p42/44 MAP kinase cascade inhibitory drug SL327, or exposed to radiation (2×2 Gy), or treated with SL327 and exposed to radiation. Twelve hours after the final irradiation, cells were processed and the number of dead (apoptoic) cells was determined by the TUNEL assay. […] Furthermore, the effect is specific for rapidly growing cells.

[11] = system: HepG2 hepatoma cells; test: TUNEL assay, HepG2 hepatoma cells after radiation; assay type: cell-based; conditions: SL327 (2 μM) + 2×2 Gy, 12 hours
Procedure: as §1, §2

Row | Structure (SMILES) | radiosensitization of cancer cells [3] | percentage of apoptotic cells (TUNEL) [4] | inhibition of MEK1 and MEK2 [5] | inhibition of Raf phosphorylation of MEK1 and MEK2 [5] | mode of action at MEK1/2 [6] | other results
1 | N#CC(=C(N)Sc1ccccc1N)C(C#N)=C(N)Sc1ccccc1N [U0126, 1,4-diamino-2,3-dicyano-1,4-bis[2-aminophenylthio]butadiene] | all cause radiosensitization of cancer cells | dramatic increase in the percentage of apoptotic cells | all inhibit MEK1 and MEK2 | inhibiting the ability of Raf protein kinases to phosphorylate MEK1 and MEK2 | bind to MEK1/2 and sterically prevent Raf from binding | decreasing cellular proliferative potential versus either treatment alone (MTT) ([1]; 2 μM U0126 + 3×2 Gy): far more effective; proliferative rate (MTT) ([1]; 2 μM U0126 alone or with 3×2 Gy, 3-4 days): Decreased proliferative rate; abolishing cellular proliferation versus U0126 alone or irradiation alone (MTT) ([2]; 2 μM U0126 + 3×2 Gy): markedly more effective; proliferative rate (MTT) ([2]; 2 μM U0126 alone or with 3×2 Gy, 4-8 days): Decreased proliferative rate
2 | Cl.Nc1ccn([C@@H]2O[C@H](CO)[C@@H](O)[C@@H]2O)c(=O)n1 [ara-C, 1-[β-D-arabinofuranosyl] cytosine hydrochloride] |  |  |  |  |  | clonogenic potential, single agent [7]: neither alone had this effect; MAP kinase activity, effect of ara-C [8]: stimulation of MAP kinase
3 | CC(=O)O[C@H]1C(=O)[C@@]2(C)[C@H]([C@H](OC(=O)c3ccccc3)[C@]3(O)C[C@H](OC(=O)[C@H](O)[C@@H](NC(=O)c4ccccc4)c4ccccc4)C(C)=C1C3(C)C)[C@]1(OC(C)=O)CO[C@@H]1C[C@@H]2O [taxol] |  |  |  |  |  | cytotoxicity at 0.5 µM [9]: ~27%
4 | O=C(NOCC1CC1)c1ccc(F)c(F)c1Nc1ccc(I)cc1Cl [PD184352] |  |  |  |  | bind to MEK1/2 and sterically prevent Raf from binding | 
5 | N#C/C(=C(/N)Sc1ccc(N)cc1)c1ccccc1C(F)(F)F [SL327] | all cause radiosensitization of cancer cells | dramatic increase in the percentage of apoptotic cells | all inhibit MEK1 and MEK2 | inhibiting the ability of Raf protein kinases to phosphorylate MEK1 and MEK2 | bind to MEK1/2 and sterically prevent Raf from binding | response to combined drug/radiation therapy (TUNEL) [10]: fairly resistant; increase in cell killing compared to radiation alone [11]: approximately 2.5 fold; response to combined drug/radiation treatment (TUNEL) [11]: effectively killed
